Measurements from the supplement of paper PMC10307832.

Assays:
Experiment in all cases: relative viability (nuclei count vs DMSO), 5 days (fraction); higher = more cells survive
Tozasertib + Navitoclax = compound: Cc1cc(Nc2cc(N3CCN(C)CC3)nc(Sc3ccc(NC(=O)C4CC4)cc3)n2)n[nH]1 [Tozasertib] + CC1(C)CCC(c2ccc(Cl)cc2)=C(CN2CCN(c3ccc(C(=O)NS(=O)(=O)c4ccc(N[C@H](CCN5CCOCC5)CSc5ccccc5)c(S(=O)(=O)C(F)(F)F)c4)cc3)CC2)C1 [Navitoclax] (partner 0.5 µM)
Outline: (§1)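 Relative viability equals treated-well nuclei counts divided by vehicle-well nuclei counts. Counts came from 4× images of lung cancer cell lines grown in 1536-well plates for 5 days after pin-tool dosing on the day after seeding. Dosing used one drug alone or a fixed anchor-drug dose plus five library-drug doses (not always all listed) in √10 steps, and values are medians of duplicate plates.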

Tozasertib + Foretinib = compound: Cc1cc(Nc2cc(N3CCN(C)CC3)nc(Sc3ccc(NC(=O)C4CC4)cc3)n2)n[nH]1 [Tozasertib] + COc1cc2c(Oc3ccc(NC(=O)C4(C(=O)Nc5ccc(F)cc5)CC4)cc3F)ccnc2cc1OCCCN1CCOCC1 [Foretinib] (partner 0.25 µM)
Outline: as §1

Tozasertib + Phenformin = compound: Cc1cc(Nc2cc(N3CCN(C)CC3)nc(Sc3ccc(NC(=O)C4CC4)cc3)n2)n[nH]1 [Tozasertib] + N=C(N)NC(=N)NCCc1ccccc1 [Phenformin] (partner 250 µM)
Outline: as §1

Tozasertib + Pemetrexed = compound: Cc1cc(Nc2cc(N3CCN(C)CC3)nc(Sc3ccc(NC(=O)C4CC4)cc3)n2)n[nH]1 [Tozasertib] + Nc1nc2[nH]cc(CCc3ccc(C(=O)N[C@@H](CCC(=O)O)C(=O)O)cc3)c2c(=O)[nH]1 [Pemetrexed] (partner 0.2 µM)
Outline: as §1

Tozasertib + Olaparib = compound: Cc1cc(Nc2cc(N3CCN(C)CC3)nc(Sc3ccc(NC(=O)C4CC4)cc3)n2)n[nH]1 [Tozasertib] + O=C(c1cc(Cc2n[nH]c(=O)c3ccccc23)ccc1F)N1CCN(C(=O)C2CC2)CC1 [Olaparib] (partner 8 µM)
Outline: as §1

Row | Cell Line | relative viability (Tozasertib + Navitoclax; first compound 0.01265 µM) | relative viability (Tozasertib + Navitoclax; first compound 0.04 µM) | relative viability (Tozasertib + Navitoclax; first compound 0.1265 µM) | relative viability (Tozasertib + Foretinib; first compound 0.004 µM) | relative viability (Tozasertib + Foretinib; first compound 0.01265 µM) | relative viability (Tozasertib + Foretinib; first compound 0.04 µM) | relative viability (Tozasertib + Foretinib; first compound 0.1265 µM) | relative viability (Tozasertib + Phenformin; first compound 0.004 µM) | relative viability (Tozasertib + Phenformin; first compound 0.01265 µM) | relative viability (Tozasertib + Phenformin; first compound 0.04 µM) | relative viability (Tozasertib + Phenformin; first compound 0.1265 µM) | relative viability (Tozasertib + Pemetrexed; first compound 0.004 µM) | relative viability (Tozasertib + Pemetrexed; first compound 0.01265 µM) | relative viability (Tozasertib + Pemetrexed; first compound 0.04 µM) | relative viability (Tozasertib + Pemetrexed; first compound 0.1265 µM) | relative viability (Tozasertib + Olaparib; first compound 0.004 µM) | relative viability (Tozasertib + Olaparib; first compound 0.01265 µM) | relative viability (Tozasertib + Olaparib; first compound 0.04 µM) | relative viability (Tozasertib + Olaparib; first compound 0.1265 µM) | relative viability (Tozasertib + Navitoclax; first compound 0.004 µM)
1 | LCLC-97TM1 | 0.434 | 0.466 | 0.242 | 1.03 | 0.895 | 0.95 | 0.695 | 0.438 | 0.437 | 0.459 | 0.407 | 0.191 | 0.157 | 0.15 | 0.18 | 0.53 | 0.381 | 0.335 | 0.231 | –
2 | LK-2 | 0.736 | 0.981 | 0.392 | 1.51 | 0.927 | 1.34 | 0.267 | 0.37 | 0.493 | 0.412 | 0.212 | 0.307 | 0.354 | 0.287 | 0.134 | 0.753 | 0.715 | 0.77 | 0.326 | 0.878
3 | LOU-NH91 | 0.704 | 0.726 | 0.665 | – | 0.923 | 1.02 | 0.918 | – | 0.672 | 0.797 | 0.559 | 0.421 | 0.409 | 0.372 | 0.39 | 0.781 | 0.916 | 0.937 | 0.922 | 0.426
4 | LU99A | 0.636 | 0.715 | 0.414 | 0.798 | 0.629 | 0.796 | 0.487 | 0.903 | 0.819 | 0.773 | 0.646 | 0.165 | 0.155 | 0.207 | 0.193 | 0.251 | 0.212 | 0.26 | 0.251 | 0.739
5 | LXF-289 | 0.889 | 0.807 | 0.588 | 1.06 | 0.963 | 0.912 | 0.739 | 0.589 | 0.511 | 0.507 | 0.383 | 0.972 | 0.824 | 0.842 | 0.859 | 1.08 | 0.942 | 0.792 | 0.644 | 0.964
6 | NCI-H23 | 0.867 | 0.805 | 0.472 | 1.02 | 0.887 | 0.848 | 0.331 | 0.76 | – | 0.85 | 0.745 | 0.888 | 0.659 | 0.695 | 0.319 | 0.34 | 0.29 | 0.269 | 0.182 | 0.842
7 | NCI-H322M | 1.28 | 1.24 | 1.35 | – | 0.941 | 1.02 | 0.47 | 0.798 | – | 0.799 | 0.481 | 0.575 | 0.585 | 0.629 | 0.478 | 0.788 | 0.843 | 0.863 | 0.559 | 1.18
8 | NCI-H441 | 0.543 | 0.483 | 0.55 | 1.05 | 0.914 | 0.895 | 0.887 | 0.955 | 0.852 | 0.937 | 0.768 | 0.264 | 0.235 | 0.251 | 0.237 | 0.625 | 0.425 | 0.49 | 0.459 | 0.761
9 | NCI-H460 | 1.03 | 1.46 | 0.788 | 1.03 | 0.981 | 1.01 | 0.504 | 0.529 | 0.463 | 0.578 | 0.159 | 0.0596 | 0.0601 | 0.0605 | 0.0623 | 0.399 | 0.336 | 0.372 | 0.3 | 1.18
10 | NCI-H520 | 1.03 | 1.17 | 0.602 | 0.872 | 0.602 | 0.923 | 0.608 | 0.546 | 0.57 | 0.662 | 0.234 | 0.743 | 0.789 | 0.633 | 0.413 | 0.285 | 0.316 | – | 0.272 | 1.08
11 | NCI-H596 | 0.815 | 1.07 | 0.827 | 0.827 | 0.916 | 0.864 | 0.766 | – | 0.808 | 0.968 | 0.834 | 0.549 | 0.477 | – | 0.473 | 0.605 | 0.769 | 0.732 | 0.525 | 1.05
12 | NCI-H647 | 1.15 | 1.03 | 0.882 | 1.24 | 1.28 | 1.34 | – | 0.687 | 0.526 | 0.602 | 0.177 | 0.186 | 0.183 | 0.169 | 0.125 | 0.744 | 0.445 | 0.501 | 0.369 | 1.06
13 | NCI-H838 | 1.14 | 1.4 | 1.14 | 0.977 | 0.922 | 1.05 | 0.921 | 0.702 | 0.514 | 0.606 | 0.177 | 0.263 | 0.257 | 0.249 | 0.232 | 0.814 | 0.752 | 0.815 | 0.386 | 1.26
14 | NCI-H1355 | 0.917 | 1.15 | 0.768 | 0.942 | 0.926 | 0.901 | 0.853 | 0.469 | 0.424 | 0.459 | 0.367 | 1.12 | 0.974 | 1.03 | 0.948 | 0.748 | 0.694 | 0.689 | 0.545 | 0.867
15 | NCI-H1395 | 1.13 | 1.06 | 0.825 | 0.951 | 0.864 | 0.972 | 0.838 | 0.46 | 0.429 | 0.47 | 0.359 | 0.979 | 0.797 | 0.864 | 0.584 | 0.435 | 0.492 | 0.407 | 0.414 | 1.28
16 | NCI-H1437 | 0.974 | 1.09 | 0.87 | 1.22 | 1.25 | 1.2 | 1.19 | 0.312 | 0.301 | 0.297 | 0.2 | 0.302 | 0.292 | 0.328 | 0.296 | 0.66 | 0.58 | 0.595 | 0.541 | 1.05
17 | NCI-H1650 | 0.981 | 1.24 | 0.936 | 1.26 | 1.28 | 1.1 | 0.879 | 0.47 | 0.38 | 0.595 | 0.199 | 0.334 | 0.374 | 0.381 | 0.385 | 0.818 | 0.721 | 0.885 | 0.722 | –
18 | NCI-H1651 | 1.05 | 1.18 | 1.07 | 0.694 | 0.773 | 0.856 | 0.87 | 0.319 | 0.339 | 0.316 | 0.267 | 0.593 | 0.615 | 0.582 | 0.433 | 0.189 | 0.158 | 0.173 | 0.167 | 1.17
19 | NCI-H1666 | 0.863 | 0.918 | 0.87 | 0.978 | 0.879 | 0.97 | 0.762 | 0.605 | 0.558 | 0.562 | 0.464 | 0.843 | 0.921 | 0.846 | 0.816 | 0.717 | 0.727 | 0.729 | 0.705 | 0.948
20 | NCI-H1734 | 0.761 | 0.834 | 0.504 | 0.888 | – | 0.824 | 0.414 | 0.41 | 0.432 | 0.374 | 0.241 | 0.424 | 0.351 | 0.453 | 0.436 | 0.734 | 0.577 | 0.66 | 0.374 | 0.851
21 | NCI-H1755 | 0.977 | 1.02 | 0.875 | 0.984 | 0.455 | 0.893 | 0.743 | 0.593 | 0.597 | 0.592 | 0.483 | 0.376 | 0.42 | 0.401 | 0.4 | 0.854 | 0.879 | 0.822 | 0.59 | 0.978
22 | NCI-H1793 | 0.501 | 0.453 | 0.33 | – | 0.56 | 0.596 | 0.389 | 0.33 | 0.427 | 0.414 | 0.458 | 1.02 | – | 1.16 | 0.458 | 0.918 | 0.778 | 0.974 | 0.533 | 0.492
23 | NCI-H1915 | 0.765 | 0.773 | 0.623 | 1.16 | 1.02 | 1.06 | 0.862 | 0.381 | 0.324 | 0.336 | 0.321 | 0.46 | 0.477 | 0.474 | 0.412 | 0.248 | 0.275 | 0.212 | 0.212 | 0.767
24 | NCI-H1944 | 1.05 | 1.02 | 0.695 | 0.876 | 0.753 | 0.72 | 0.459 | 0.203 | 0.211 | 0.211 | 0.167 | 0.577 | 0.579 | 0.588 | 0.537 | 0.406 | 0.38 | 0.398 | 0.287 | 0.96
25 | NCI-H1975 | 1.2 | 1.23 | 1.1 | 1 | 1.03 | 1.03 | 0.844 | 0.444 | 0.432 | 0.428 | 0.366 | 0.317 | 0.289 | 0.307 | 0.272 | 0.829 | 0.739 | 0.795 | 0.74 | 1.14
26 | NCI-H1993 | 0.884 | 0.927 | 0.651 | 0.944 | 0.732 | 0.848 | 0.726 | 0.527 | 0.482 | 0.481 | 0.486 | 0.587 | 0.605 | 0.634 | 0.476 | 0.998 | 1.05 | 0.897 | 0.722 | 0.901
27 | NCI-H2009 | 1.16 | 1.17 | 1.17 | 1.21 | 1.19 | 1.33 | 0.994 | 0.5 | 0.455 | 0.476 | 0.477 | 1 | 1.03 | 0.985 | 0.986 | 0.739 | 0.69 | 0.692 | 0.698 | 1.21
